Experimental data published in patent US12239134B2, “Plant antimicrobial compositions including an emulsifier and/or ozone and methods of use” (Arizona Board of Regents on Behalf of The University of …, priority 2018, dated 2025).
Where two headings read alike, the source gives them in different places.

Assays:
Salmonella Newport = test: Biofilm formation on food contact surface coupons, direct plating; type: cell-based, Salmonella enterica; conditions: two-minute treatment
Experimental: A protocol based on direct plating was also evaluated for testing the biofilm formation by Salmonella or L. monocytogenes. Biofilms were formed on three different food contact surface coupons (HDPE, Buna-N rubber, and 316 stainless steel) for up to 3 days in 35 mm mini-petri dishes. Biofilms were formed using a 1:10 diluted TSB solution (10 mL) with either S. enterica or L. monocytogenes inoculum (100 μL). The diluted TSB was changed every 16-18 hours with new 1:10 diluted TSB (10 mL). Coupons were removed for sampling and enumeration of strongly attached bacteria at three different time points (Day 0, 1, and 3). The coupons were rinsed with deionized water five times to remove planktonic cells. Then the coupons were immersed in 10 mL of BPW. The coupons were sonicated for 2 minutes using different settings (Tables 11 and 12) for each organism. After sonication, the solution was serially diluted and plated on Tryptic Soy Agar (TSA). Plates were incubated at 37° C. for 24-48 hours. The colonies were counted and the colony forming units were determined for the various sonication settings, so that the appropriate setting with the most recovery could be determined. […] These settings were used in further experiments to recover the bacterial cells from coupons during sampling and enumeration (by spread plating) of the bacteria in biofilms.
The reduction in bacterial biofilm formation was also tested using a direct plating method. Biofilms were formed on six different food contact surface coupons (HDPE, Buna-N rubber, PC, PVC, and stainless steel 304 and 316) in separate 35 mm mini-petri dishes and evaluated at three different time points (Day 0, 1, and 3). Biofilms were formed using a 1:10 diluted TSB solution (10 mL) with either S. enterica or L. monocytogenes inoculum (100 μL). The coupons were also washed and treated with antimicrobial solutions containing the plant-based emulsifier and the essential oil/plant extracts at various concentrations. The diluted TSB was changed every 16-18 hours with new 1:10 diluted TSB (10 mL). The coupons were rinsed in the antimicrobial solution before adding them to the petri dishes containing the fresh, diluted TSB. After their specific time points, coupons were removed aseptically using sterile forceps from the petri dish. The coupons were rinsed by submerging in 25 mL of sterile deionized H2O and swirled five times to remove planktonic cells. After rinsing, they were placed into a new petri dish immersed in 10 mL of BPW. The coupons were sonicated for 2 minutes on ice using different settings for each organism. After sonication, the sonicated solution was serially diluted using 0.1% peptone water and spread plated on TSA in duplicate. Plates were incubated overnight at 37° C. for 24-48 hours, after which, the colonies were counted, to establish the efficacy of the antimicrobial solutions (Tables 17-25).

S. Newport = conditions: used alone, previous work, cited from earlier work

Cc1ccc(C(C)C)cc1O [Carvacrol, carvacrol]
Survivors of Salmonella Newport on food contact surface (Salmonella Newport; 0.5% with 0.0001% saponin microemulsion, Day 0, 304 SS): 4.75 Log CFU/mL | Survivors of Salmonella Newport on food contact surface (Salmonella Newport; 0.5% with 0.0001% saponin microemulsion, Day 0, 316 SS): 4.66 Log CFU/mL | Survivors of Salmonella Newport on food contact surface (Salmonella Newport; 0.5% with 0.0001% saponin microemulsion, Day 0, Buna N): 4.19 Log CFU/mL | Survivors of Salmonella Newport on food contact surface (Salmonella Newport; 0.5% with 0.0001% saponin microemulsion, Day 0, HDPE): <1 Log CFU/mL | Survivors of Salmonella Newport on food contact surface (Salmonella Newport; 0.5% with 0.0001% saponin microemulsion, Day 0, PC): <1 Log CFU/mL | Survivors of Salmonella Newport on food contact surface (Salmonella Newport; 0.5% with 0.0001% saponin microemulsion, Day 0, PVC): 2.74 Log CFU/mL | Survivors of Salmonella Newport on food contact surface (Salmonella Newport; 0.5% with 0.0001% saponin microemulsion, Day 1, 304 SS): 4.26 Log CFU/mL | Survivors of Salmonella Newport on food contact surface (Salmonella Newport; 0.5% with 0.0001% saponin microemulsion, Day 1, 316 SS): 4.42 Log CFU/mL | Survivors of Salmonella Newport on food contact surface (Salmonella Newport; 0.5% with 0.0001% saponin microemulsion, Day 1, Buna N): 4.65 Log CFU/mL | Survivors of Salmonella Newport on food contact surface (Salmonella Newport; 0.5% with 0.0001% saponin microemulsion, Day 1, HDPE): <1 Log CFU/mL | Survivors of Salmonella Newport on food contact surface (Salmonella Newport; 0.5% with 0.0001% saponin microemulsion, Day 1, PC): <1 Log CFU/mL | Survivors of Salmonella Newport on food contact surface (Salmonella Newport; 0.5% with 0.0001% saponin microemulsion, Day 1, PVC): 4.24 Log CFU/mL | Survivors of Salmonella Newport on food contact surface (Salmonella Newport; 0.5% with 0.0001% saponin microemulsion, Day 3, 304 SS): <1 Log CFU/mL | Survivors of Salmonella Newport on food contact surface (Salmonella Newport; 0.5% with 0.0001% saponin microemulsion, Day 3, 316 SS): <1 Log CFU/mL | Survivors of Salmonella Newport on food contact surface (Salmonella Newport; 0.5% with 0.0001% saponin microemulsion, Day 3, Buna N): <1 Log CFU/mL | Survivors of Salmonella Newport on food contact surface (Salmonella Newport; 0.5% with 0.0001% saponin microemulsion, Day 3, HDPE): <1 Log CFU/mL | Survivors of Salmonella Newport on food contact surface (Salmonella Newport; 0.5% with 0.0001% saponin microemulsion, Day 3, PC): <1 Log CFU/mL | Survivors of Salmonella Newport on food contact surface (Salmonella Newport; 0.5% with 0.0001% saponin microemulsion, Day 3, PVC): <1 Log CFU/mL | Survivors of Salmonella Newport on food contact surface (Salmonella Newport; 0.7% with 0.0001% saponin microemulsion, Day 0, 304 SS): 4.57 Log CFU/mL | Survivors of Salmonella Newport on food contact surface (Salmonella Newport; 0.7% with 0.0001% saponin microemulsion, Day 0, 316 SS): 4.24 Log CFU/mL | Survivors of Salmonella Newport on food contact surface (Salmonella Newport; 0.7% with 0.0001% saponin microemulsion, Day 0, Buna N): 4.44 Log CFU/mL | Survivors of Salmonella Newport on food contact surface (Salmonella Newport; 0.7% with 0.0001% saponin microemulsion, Day 0, HDPE): 4.24 Log CFU/mL | Survivors of Salmonella Newport on food contact surface (Salmonella Newport; 0.7% with 0.0001% saponin microemulsion, Day 0, PC): 4.18 Log CFU/mL | Survivors of Salmonella Newport on food contact surface (Salmonella Newport; 0.7% with 0.0001% saponin microemulsion, Day 0, PVC): 4.63 Log CFU/mL | Survivors of Salmonella Newport on food contact surface (Salmonella Newport; 0.7% with 0.0001% saponin microemulsion, Day 1, 304 SS): <1 Log CFU/mL | Survivors of Salmonella Newport on food contact surface (Salmonella Newport; 0.7% with 0.0001% saponin microemulsion, Day 1, 316 SS): <1 Log CFU/mL | Survivors of Salmonella Newport on food contact surface (Salmonella Newport; 0.7% with 0.0001% saponin microemulsion, Day 1, Buna N): <1 Log CFU/mL | Survivors of Salmonella Newport on food contact surface (Salmonella Newport; 0.7% with 0.0001% saponin microemulsion, Day 1, HDPE): <1 Log CFU/mL | Survivors of Salmonella Newport on food contact surface (Salmonella Newport; 0.7% with 0.0001% saponin microemulsion, Day 1, PC): <1 Log CFU/mL | Survivors of Salmonella Newport on food contact surface (Salmonella Newport; 0.7% with 0.0001% saponin microemulsion, Day 1, PVC): <1 Log CFU/mL | Survivors of Salmonella Newport on food contact surface (Salmonella Newport; 0.7% with 0.0001% saponin microemulsion, Day 3, 304 SS): <1 Log CFU/mL | Survivors of Salmonella Newport on food contact surface (Salmonella Newport; 0.7% with 0.0001% saponin microemulsion, Day 3, 316 SS): <1 Log CFU/mL | Survivors of Salmonella Newport on food contact surface (Salmonella Newport; 0.7% with 0.0001% saponin microemulsion, Day 3, Buna N): <1 Log CFU/mL | Survivors of Salmonella Newport on food contact surface (Salmonella Newport; 0.7% with 0.0001% saponin microemulsion, Day 3, HDPE): <1 Log CFU/mL | Survivors of Salmonella Newport on food contact surface (Salmonella Newport; 0.7% with 0.0001% saponin microemulsion, Day 3, PC): <1 Log CFU/mL | Survivors of Salmonella Newport on food contact surface (Salmonella Newport; 0.7% with 0.0001% saponin microemulsion, Day 3, PVC): <1 Log CFU/mL | Survivors of Salmonella Newport on food contact surface (Salmonella Newport; 1% with 0.0001% saponin microemulsion, Day 0, 304 SS): <1 Log CFU/mL | Survivors of Salmonella Newport on food contact surface (Salmonella Newport; 1% with 0.0001% saponin microemulsion, Day 0, 316 SS): <1 Log CFU/mL | Survivors of Salmonella Newport on food contact surface (Salmonella Newport; 1% with 0.0001% saponin microemulsion, Day 0, Buna N): <1 Log CFU/mL | Survivors of Salmonella Newport on food contact surface (Salmonella Newport; 1% with 0.0001% saponin microemulsion, Day 0, HDPE): <1 Log CFU/mL | Survivors of Salmonella Newport on food contact surface (Salmonella Newport; 1% with 0.0001% saponin microemulsion, Day 0, PC): <1 Log CFU/mL | Survivors of Salmonella Newport on food contact surface (Salmonella Newport; 1% with 0.0001% saponin microemulsion, Day 0, PVC): <1 Log CFU/mL | Survivors of Salmonella Newport on food contact surface (Salmonella Newport; 1% with 0.0001% saponin microemulsion, Day 1, 304 SS): <1 Log CFU/mL | Survivors of Salmonella Newport on food contact surface (Salmonella Newport; 1% with 0.0001% saponin microemulsion, Day 1, 316 SS): <1 Log CFU/mL | Survivors of Salmonella Newport on food contact surface (Salmonella Newport; 1% with 0.0001% saponin microemulsion, Day 1, Buna N): <1 Log CFU/mL | Survivors of Salmonella Newport on food contact surface (Salmonella Newport; 1% with 0.0001% saponin microemulsion, Day 1, HDPE): <1 Log CFU/mL | Survivors of Salmonella Newport on food contact surface (Salmonella Newport; 1% with 0.0001% saponin microemulsion, Day 1, PC): <1 Log CFU/mL | Survivors of Salmonella Newport on food contact surface (Salmonella Newport; 1% with 0.0001% saponin microemulsion, Day 1, PVC): <1 Log CFU/mL | Survivors of Salmonella Newport on food contact surface (Salmonella Newport; 1% with 0.0001% saponin microemulsion, Day 3, 304 SS): <1 Log CFU/mL | Survivors of Salmonella Newport on food contact surface (Salmonella Newport; 1% with 0.0001% saponin microemulsion, Day 3, 316 SS): <1 Log CFU/mL | Survivors of Salmonella Newport on food contact surface (Salmonella Newport; 1% with 0.0001% saponin microemulsion, Day 3, Buna N): <1 Log CFU/mL | Survivors of Salmonella Newport on food contact surface (Salmonella Newport; 1% with 0.0001% saponin microemulsion, Day 3, HDPE): <1 Log CFU/mL | Survivors of Salmonella Newport on food contact surface (Salmonella Newport; 1% with 0.0001% saponin microemulsion, Day 3, PC): <1 Log CFU/mL | Survivors of Salmonella Newport on food contact surface (Salmonella Newport; 1% with 0.0001% saponin microemulsion, Day 3, PVC): <1 Log CFU/mL | reduction of S. Newport on iceberg lettuce (S. Newport; 0.1%): 1 log CFU/g | reduction of S. Newport on iceberg lettuce (S. Newport; 0.3%): over 5 log CFU/g | reduction of S. Newport on iceberg lettuce (S. Newport; 0.5%): over 5 log CFU/g
